# In a melting point compilation (Tetko et al.; mined from patent text by program, amines drawn as free bases though some values may be those of a salt):
row,melting point,Compound
1,50 to 53 °C,CC(=O)NC(Cc1c[nH]c2ccccc12)C(=O)CCc1cc(C(F)(F)F)cc(C(F)(F)F)c1 (stereo not given)
2,153 to 154 °C,COc1ccc2c(c1)NC(=O)C(CCCN1CCN(c3ccc(F)cc3)CC1)O2 (stereo not given)
3,212 to 213 °C,Cc1nc(-c2cn(Cc3ccc(F)cc3)nn2)sc1C(=O)NCc1cccnc1
4,133 to 135 °C,CCOC(=O)Cc1c(C)n(Cc2ccc(Cl)cc2)c2cccc(OCc3csc(-c4ccc(Cl)cc4)n3)c12
5,128 to 130 °C,Fc1cccc(F)c1-c1nn(-c2ccccc2C(F)(F)F)c(=S)o1
6,254 °C,CC(c1ccc2[nH]c(-c3cccnc3)nc2c1)n1ccnc1 (stereo not given)
7,144 to 146 °C,c1coc(C2=Nc3ccccc3N3CCc4cccc2c43)c1
8,218 °C,CCc1c(C(=O)O)nn(-c2ccc(Cl)cc2Cl)c1-c1ccc(Br)cc1
9,141 to 142 °C,COc1ccc(CNc2nc(SC)ncc2C(=O)c2cccnc2)cc1Cl
10,133 to 135 °C,Clc1ccc(-c2cc(Cl)n3nccc3n2)cc1
11,196 to 198 °C,Cc1cc(-c2ccc(Cl)cc2)n(-c2ccc(S(N)(=O)=O)cc2)c1
12,191 °C,CCCS(=O)(=O)Cc1ccc(C(=O)Nc2ccc3cc(CN4CCCC4)cnc3c2C)cc1
13,140 to 143 °C,COc1ccc([C@H]2c3[nH]c4ccccc4c3C[C@H]3C(=O)N(CCc4ccccn4)C(=O)N23)cc1 (relative stereo)
14,132 to 133 °C,COc1ccc(S(=O)(=O)Nc2nc(-c3cccc4ccccc34)cs2)cc1OC
15,191 to 192 °C,CCc1nnc(C2=C(OC(=O)c3ccccc3)c3ccccc3S(=O)(=O)N2C)o1
16,64 to 66 °C,Clc1ccc(-c2ccc(CBr)cc2)cc1
17,192 °C,Clc1ccc(-c2n[nH]c3cc4ccccc4cc23)cc1
18,255 to 256 °C,Cc1cc(-c2cc(=O)c3ccccc3o2)cc(C)c1O
19,253 to 254 °C,O=c1c2c(Cc3cccc(OC(F)(F)F)c3)n[nH]c2c2cccnc2n1-c1ccccc1
20,203 to 205 °C,O=C(NC1CCCc2cc(C(=O)O)ccc21)OCc1ccccc1 (stereo not given)
21,191 to 192 °C,COc1ccc(NC(=N)c2cccs2)cc1CO
22,150 to 151 °C,COc1ccc(CCc2nnc(-c3ccc4nccn4c3)o2)cc1C(F)(F)F
23,157 to 159 °C,Cc1ccc(C(=O)Nc2cccc(C(F)(F)F)c2)cc1-c1ccc2ccncc2c1
24,153 to 154 °C,CC(=O)Nc1c(C#N)cnn1-c1c(F)c(F)c(C(F)(F)F)c(F)c1F
25,93 to 95 °C,CC(=O)c1ccc(-c2ccc(F)cc2F)c(N)c1

row,melting point,Compound
1,259 to 260 °C,O=C(O)c1cc(Cl)c(-n2ccc(C(F)(F)F)cc2=O)c(Cl)c1
2,190 to 193 °C,NS(=O)(=O)c1ccc(-c2cnn(C3=CC=CC(F)(F)C3F)c(=O)c2-c2ccc(F)cc2)cc1 (stereo not given)
3,268 to 269 °C,CC(C)(O)c1ccc(-c2cnc3c(n2)N(CC2CCOCC2)CC(=O)N3)cn1
4,110 to 112 °C,Cc1ccc(S(=O)(=O)N[C@@H](C)C(=O)Oc2csc(-c3ccccc3)n2)cc1
5,173 °C,O=Cc1ccc(C(=O)Nc2ccc(C(F)(F)F)cc2)cc1
6,197 to 198 °C,NC(=O)c1[nH]c2ccccc2c1Sc1ccccc1
7,168 to 169 °C,Cc1cnc2ccnn2c1-c1cccc(C(F)(F)F)c1
8,168 to 170 °C,COc1ccc(CSc2c(O)cc(-c3ccccc3)oc2=O)cc1
9,105 to 106 °C,CCOC(=O)c1ccc(-c2csc(-c3ccc(Cl)cc3)n2)cc1
10,118 to 124 °C,Cc1cc2c(s1)Nc1ccccc1N=C2N1CCN(C)[C@@H](CO)C1
11,218 to 219 °C,CC1(C)Nc2ccc(C#N)cc2C(NC(=NC#N)Nc2ccccc2)C1O (stereo not given)
12,267 to 270 °C,CC(C)Oc1ccc(-c2[nH]c(-c3ccc([N+](=O)[O-])cc3)nc2C(=O)Nc2nccs2)cc1
13,233 to 235 °C,CCOCc1nc2c(N)nc3cc(-c4cccnc4)ccc3c2n1CCNS(C)(=O)=O
14,126 to 129 °C,COc1cc(C(=O)Cc2ccccc2)cc(Cl)c1Cl
15,135 to 137 °C,COc1ccc(C2=NN(c3csc(C)n3)C(=O)[C@H]3CCCC[C@@H]23)cc1OC (relative stereo)
16,140 to 143 °C,CCCN(c1ccncc1)N1C(=O)Cc2ccccc21
17,181 to 184 °C,Cc1noc(NS(=O)(=O)c2cc(S(=O)(=O)c3ccccc3)cs2)c1Br
18,140 °C,c1ccc(-c2ccc(CCNc3ccncc3)cc2)cc1
19,116 °C,FC(F)(F)c1ccc(-n2nnnc2Nc2ccc(C(F)(F)F)cc2Cl)cc1
20,231 to 234 °C,O=C(Nc1ccc2c(c1)OCO2)c1ccc([N+](=O)[O-])cc1
21,192 °C,Cn1c(=O)cc(-c2nc(-c3ccccc3)cs2)c2cc(C(O)c3ccc(Cl)cc3)ccc21 (stereo not given)
22,85 to 86 °C,CS(=O)(=O)Oc1ccc(CCOc2ccc(-c3ncccc3C(=O)O)cc2C#N)cc1
23,117 to 119 °C,COc1ccnc(CCc2nc3cc(-c4ccc(N)cc4)cnc3[nH]2)c1
24,229 to 231 °C,Cc1cc(-c2[nH]c3ccc([N+](=O)[O-])cc3c2C)cc(C)c1O
25,208 to 210 °C,Cc1nc(N2C[C@H](C)N(Cc3ccc(F)cc3)C2=O)sc1C(=O)O

# Second part, the compound before the results:
row,Compound,melting point
1,CCc1ccc(C(=O)Cc2ccc(Br)cc2)cc1,146 °C
2,COC(=O)C(=O)CC(=O)/C=C/c1ccc(Cl)cc1,135 to 136 °C
3,CC(C)(C)c1cc([N+](=O)[O-])cc(C(C)(C)C)c1O,167 to 168 °C
4,O=C(Nc1ccc(CN2C(=O)[C@H]3CCC[C@H]3N(C(=O)CN3C(=O)c4ccccc4C3=O)c3ccccc32)cc1)OCc1ccccc1 (relative stereo),144 to 147 °C
5,COC(=O)c1ccc(-c2ccc3cc(OCc4ccccc4)c(C45CC6CC(CC(C6)C4)C5)cc3c2)cc1,170 to 173 °C
6,COc1ccc(/C=C/c2nc3c([nH]2)c(=O)n(C)c(=O)n3C)c(C)c1C,> 275 °C
7,CCc1nc2c(cnn2CC)c(NC2CCOCC2)c1CNC(=O)c1cccc(C(=O)NCc2cc(Cl)cc(-c3cccc(CN4CCCN(C)CC4)c3)c2)c1,111 to 113 °C
8,CC(c1ccc(Cl)cc1)N(O)C(N)=O (stereo not given),125 to 128 °C
9,CC1(c2cccc(F)c2C(=O)NCCCl)CCC1,108 to 110 °C
10,COc1ccc2c(c1)CCC(n1cc[nH]c1=S)C2 (stereo not given),226 to 227 °C
11,CCCCN(Cc1ccc(-c2ccccc2-c2nnnn2C(c2ccccc2)(c2ccccc2)c2ccccc2)cc1)c1ncccc1C(=O)OCC,90 to 94 °C
12,CC[C@H](C)[C@H](NC(=O)OCc1ccccn1)C(=O)NC(Cc1ccccc1)C(O)C(O)C(Cc1ccccc1)NC(=O)[C@@H](NC(=O)OCc1ccccn1)[C@@H](C)CC (stereo not given in full),220 to 221 °C
13,CCn1c2c(c3ccccc31)Cc1c(C(=O)OC)c(C(=O)OC)c(C)n1C2,202 to 203 °C
14,N#Cc1ccccc1N1CCN(CCC=C2c3ccccc3CCc3ccccc32)CC1,112 to 114 °C
15,Nc1ccc2oc3c(c2c1)CCC3,86.5 to 88.5 °C
16,Nc1ccc(NC(=O)C=C2CC(C(=O)OCc3ccccc3)Nc3cc(Cl)cc(Cl)c32)cc1 (racemic),80 °C
17,CC(=O)C=Cc1cccc(N(C)C)c1,47 to 49 °C
18,C=CCOc1ccc2cc(S(N)(=O)=O)sc2c1,101 to 102 °C
19,COc1cccc(OC)c1-c1cc(C(=O)N[C@H](C(=O)O)C2CCCCC2)nn1-c1ccc(C(N)=O)c2ccccc12,186 °C
20,CC(=O)Nc1occ(C(C)(C)C)c1C#N,135 °C
21,C[C@@H](O)Cn1cnc2c(N)ncnc21,188 to 190 °C
22,CCCc1c(C(=O)C(C)C)c2ccc(C(=O)O)cc2n1Cc1ccccc1F,212 to 213 °C
23,O=C1CCC2(CCC(=O)c3cc(Cl)ccc32)C(=O)N1 (stereo not given),282 to 284 °C

row,Compound,melting point
1,N=C(Nc1ccccc1-c1ccccc1)C1CCCCC1,148 to 150 °C
2,c1ccc(N(c2ccccc2)c2ccc3c4c(cccc24)CC3)cc1,168 to 170 °C
3,O=C1NCc2cc(C3CC3)sc21,109 to 110 °C
4,Oc1ccc2c(c1)Sc1ccccc1CN2,172 to 174 °C
5,CCOC(=S)c1c(C)nc2sccn12,133 to 135 °C
6,CCCC(=O)Nc1cc(C(=O)Nc2cc(C(=O)Nc3ccc(O)cc3CCBr)n(C)c2)n(C)c1,138 to 150 °C
7,CCS(=O)(=O)Oc1cccc([N+](=O)[O-])c1,110 °C
8,O=C(COc1cccc(Cl)c1)NCCO[N+](=O)[O-],62 to 64 °C
9,CC(C)C(=O)CCC(C)C1CCC2C3C=CC4=CC(=O)C5OC5C4(C)C3CCC12C (stereo not given),150 to 152 °C
10,COc1ccccc1NC(=O)Nc1nc(Nc2ccccc2-c2ccccc2)nc(N2CCC(C(=O)O)CC2)n1,130 to 135 °C
11,COc1ccc(C2(c3ccc(OC)cc3)CCN(C[C@H]3CN(C)[C@@H]4Cc5c[nH]c6cccc(c56)[C@@]4(OC)C3)CC2)cc1,215 to 222 °C
12,CNCC(O)COc1ccccc1 (stereo not given),74 to 77 °C
13,CCOC(=O)NCCCC1OCC(c2cccc3ccccc23)CO1 (stereo not given),93 to 94 °C
14,O=C(O)c1cn(C2CC2)c2c(CO)c(N3CCNCC3)c(F)cc2c1=O,149 to 152 °C
15,COc1ccc(C2(C#Cc3cnc(N)nc3)CCC(O)CC2)cc1OC1CCCC1 (stereo not given),170 to 172 °C
16,CSC(=NCCSCc1cc2ccc(CN(C)C)cc2o1)NC#N,98 to 100 °C
17,Cc1cc2c(cc1C1=NNC(=O)CC1C)N(C)C(=O)C(C)O2 (stereo not given),190 to 192 °C
18,CC(Cc1ccc(Oc2cc(Oc3ccccc3)nc(N3CCN(Cc4ccccc4)CC3)n2)cc1)(Oc1ccccc1)C(=O)O (stereo not given),135 to 137 °C
19,CCCCCCCCCCCCc1cc(NC(=O)Nc2c(C(C)C)cccc2C(C)C)no1,101 to 107 °C
20,O=C(O)c1cc(S(=O)(=O)Oc2ccccc2-c2ccc(-c3c(Cc4ccccc4)oc4ccccc34)cc2)ccc1O,171 to 173 °C
21,CCCC1=C(C(=O)OC)C(c2ccccc2Cl)c2c[nH]nc2N1 (stereo not given),203 to 207 °C
22,COC(=O)[C@]1(F)[C@@H]2[C@H]1C(=O)C[C@H]2O[Si](C)(C)C(C)(C)C,70 to 71 °C
